System: internal mitochondrial proteases
Assay: MALDI-TOF-TOF sequence confirmation of MTS cleavage
Design: species or system Kluyveromyces lactis
Conditions: for Peptide detected: RFP sequence (1-9) VSKGEELIK, position 1-9; for cleavage of the MTS: enriched sample, gel piece, trypsin digestion
Experimental: The enriched sample was analysed on a 15% SDS-PAGE gel and stained with Coomassie blue. After de-staining the gel a piece of the SDS-PAGE gel was cut at the position where the RFP was expected. This was washed extensively in water and analysed by MALDI-TOF-TOF analysis after trypsin digestion. […]

Row | Substance | Peptide detected | cleavage of the MTS
1 | MIS-XIII: synthetic mitochondrial targeting sequence (MTS), SEQ ID NO: 3, containing the core RRRA (RAARRRAARR) | VSKGEELIK | cleavage was correct
2 | MIS-XIV: synthetic mitochondrial targeting sequence (MTS), SEQ ID NO: 4, containing the core RRRA (RARRRARR) | VSKGEELIK | cleavage was correct
3 | MIS-VII: synthetic mitochondrial targeting sequence (MTS), SEQ ID NO: 2, containing the core RRRA (RLRRRAARSLARSAARR) | VSKGEELIK | cleavage was correct

— EP2369000A1, “Production of peptides and proteins by accumulation in mitochondria” (3T-Science, S.L., priority 2010, dated 2011)
